Consider 1 molecule from US5260426A, “Process for the preparation of pseudo primycin” (Chinoin Gyogyszer Es Vegyeszeti Termekek Gyara R.T., priority 1988, dated 1993).

Like-named read-outs stand apart in the source and are kept apart here.

A short description of one data set: in vivo. The following applies: mouse.
A further data set can be described thus: Solubility. The data set is classed as physicochemical.

Broadly, the LD50 is the dose at which mortality reaches 50%. As for `CCCCC1C(=O)OC(CCCNC(=N)N)C(C)C(O)C(C)C=C(C)CCCCC(O)CC(O)CC(O)CC(O)CC(O)C(OC2OC(CO)C(O)C2O)C=C(C)C(O)CCCC(O)CCCC(O)CCC(C)C1O` (stereo not shown) [Pseudo-primycin-A1-acetate], the LD50 stood at 18.8 mg/kg in “in vivo” (iv, female mice, read-out: LD50 values i.v. female); 17.7 mg/kg in “in vivo” (iv, male mice, read-out: LD50 values i.v. male); 1580 mg/kg in “in vivo” (po, female mice, read-out: LD50 values p.o. female); 1720 mg/kg in the data set “in vivo” (po, male mice, read-out: LD50 values p.o. male). Moreover, the solubility in ethanol in the data set “Solubility” (ethanol) is on record as 5 g/10 ml. The same molecule had a solubility in methanol in the data set “Solubility” (methanol) of 10 g/10 ml. Further, in the data set “Solubility” (water), the solubility in water stood at 5 g/10 ml.
